The source of these data is paper PMC8621857, “Structural Insights into the Azole Resistance of the Candida albicans Darlington Strain Using Saccharomyces cerevisiae Lanosterol 14α-Demethylase as a Surrogate” (Journal of Fungi, 2021).

Read-outs that look alike come from different tables or passages of the source.

Assay [1] deals with S. cerevisiae strain AD3Δ ScErg11 Y140H I471T expressing ScLDM6×His Y140H I471T. As to the kind of experiment: Broth microdilution drug susceptibility assay (MIC80), strain AD3Δ ScErg11 Y140H I471T. To be noted: for MIC: Saccharomyces cerevisiae, strain Y140H + I471T, 48 h, 30 °C, pH 6.8, mean (± SEM), n = 3; for MIC80/Relative Amount of ScLDM6×His / fold-resistance based on the relative amount of recombinant enzyme compared with strain AD3Δ: strain Y140H+I471T, relative expression 0.41. The assay is classed as cell-based, Saccharomyces cerevisiae. On the procedure: (§1) The native ScERG11 gene in yeast cells containing mutant ScERG11-6×His constructs in the PDR5 locus was disrupted by homologous recombination with a cassette encoding the His1 selection marker and sequences homologous with the regions bordering the endogenous ScERG11 ORF to create strains AD3Δ ScErg11 Y140H, AD3Δ ScErg11 I471T and AD3Δ ScErg11Y140H I471T [43]. Transformants were selected on SD-His agar plates incubated at 30 °C for 48–72 h. Genomic DNA was extracted, and DNA sequencing as above was used to confirm deletion of the native ERG11. Strain AD3Δ ScErg11 (denoted as AD3Δ), which overexpresses wild-type ScLDM6×His from the PDR5 locus and has the native ScERG11 gene disrupted, was used as a control strain [43].
(§2) Azole susceptibility was measured as the mean drug concentration required to inhibit 80% of yeast growth (MIC80) compared to a non-drug control, using a standard broth microdilution assay. Serial dilutions of short- (FLC and VCZ), medium- (VT-1161), and long-tailed (ITC and PCZ) azole drugs, and the control drugs micafungin (MCF) and amphotericin B (AMB), were prepared in a 96-well microtiter plate in complete synthetic media lacking uracil, buffered to pH 6.8 [34]. Control and test cells were seeded at an optical density of 600 nm (OD600) of 0.005 (~1.5 × 10^4 colony forming units). After incubation for 48 h at 30 °C with constant agitation (200 rpm), the OD600 nm of each well was measured using a Synergy 2 multi-mode plate reader (BioTek Instruments, Winooski, VT, USA). The experiment was repeated three times (a total of nine measurements for the response of each strain to each drug). GraphPad Prism 5.0 software was used for statistical analysis, using a one-way analysis of variance with a Bonferroni post-hoc test. The statistical significance of comparisons was accepted when p < 0.05.

The subject of assay [2] is S. cerevisiae strain AD2Δ (native wild-type ScLDM). Briefly: Broth microdilution drug susceptibility assay (MIC80), host strain AD2Δ. The assay is classed as cell-based. To be noted: Saccharomyces cerevisiae; strain AD2Δ; 48 h, 30 °C, pH 6.8; mean (± SEM), n = 3; read-out: MIC80. As to the method: Yeast strains used in this study (Supplementary Table S1) were prepared using the AD2Δ strain of S. cerevisiae as a host, using an established protocol. AD2Δ is hypersensitive to xenobiotics due to the deletion of seven major ABC transporters, including those responsible for the efflux of azole drugs. It is also deleted of the PDR3 transcriptional regulator, but contains the gain-of-function Pdr1-3 transcriptional regulator mutation that leads to constitutive overexpression from the PDR5 locus.
as §2
(In general: Broth dilution looks for growth in wells or tubes with falling amounts of substance.)

Assay [3] has as its target wild-type and Y140F/H mutants of ScLDM6×His. The arrangement: method as in earlier work. To be noted: no significant differences, ref 5 (supplement; Sagatova et al. 2016); cited from earlier work.
In assay [4] the target is T1, wild-type (AD3Δ) ScLDM6×His (Saccharomyces cerevisiae, UniProt P10614).
T1 construct: recombinant full-length C-terminal hexahistidine-tagged wild-type Saccharomyces cerevisiae LDM (ScLDM6×His); 6×His (hexahistidine) (C); made in house; host or cells: Saccharomyces cerevisiae strain AD3Δ ScErg11 (overexpression from the PDR5 locus, native ERG11 disrupted)
Briefly: Type II azole binding to affinity purified wild-type ScLDM6×His. The note with it: for ΔAmax: type II binding. As to the method:
Protein purification was carried out using established methods. In brief, a 12 L culture for each control and test strain was grown overnight in 1 L volumes of YPD medium (1% [w/v] yeast extract [BD Difco], 2% [w/v] peptone [BD Difco], and 2% [w/v] D-glucose) in baffled 3 L flasks at 30 °C, with constant agitation (140 rpm). Cells harvested by centrifugation were broken by bead-beating and crude membrane fractions obtained by differential centrifugation, as previously described. The protein concentration of the crude membranes was estimated using the Lowry assay, with bovine serum albumin (Thermo Fisher) used as the protein standard. The crude membranes (1 g at 2.5 mg/mL) were detergent-solubilized using 10× critical micelle concentration (CMC) n-decyl-β-D-maltoside (DM) (Anatrace, Maumee, OH, USA) in buffer containing 10% (w/v) glycerol, 250 mM NaCl, 20 mM Tris pH 7.5, 0.5 mM phenylmethanesulfonyl fluoride (PMSF), and 1 EDTA-free protease inhibitor pill (Roche, Basel, Switzerland) per 300 mL. When the protein was to be used to assess in vitro binding affinity for the test azoles, detergent solubilized ScLDM6×His recovered after centrifugation was affinity purified using a nickel-nitrilotriacetic acid (Ni-NTA)-agarose matrix (Qiagen). The bound ScLDM6×His was eluted from the matrix using an affinity purification buffer containing 50 mM L-histidine. The L-histidine was removed by washing the enzyme through centrifugal filtration, using a 50 kDa molecular-weight cut-off Amicon Ultra-4 filter (Sigma, Auckland, New Zealand).
The concentration of functional ScLDM6×His purified by the nickel affinity method was quantitated using the standard carbon monoxide (CO) binding method. Type II drug binding assays that measure absorbance changes due to ligand interactions with ScLDM6×His were performed for VCZ and ITC, using an established protocol. The peak429nm-trough410nm difference spectra plotted against azole concentration were used to generate drug binding curves. All calculations were performed using GraphPad Prism 5 Software.

In assay [5] the test system is S. cerevisiae strain AD3Δ ScErg11 (AD3Δ) overexpressing wild-type ScLDM6×His. As to the kind of experiment: Broth microdilution drug susceptibility assay (MIC80), strain AD3Δ ScErg11. The class given is cell-based, Saccharomyces cerevisiae. To be noted: strain AD3Δ; for MIC80: Saccharomyces cerevisiae, 48 h, 30 °C, pH 6.8, mean (± SEM), n = 3, read-out: MIC80; for MIC80/Relative Amount of ScLDM6×His: relative expression 1. As to the method: as §1, §2

The subject of assay [6] is C. albicans strain SC5314. Briefly: Agarose disk diffusion assay, control strain SC5314. The class given is cell-based, Candida albicans. To be noted: for effect of Cdr1p inhibitor RC21v3 on azole susceptibility: SC5314, RC21v3 at 6 µM in the assay medium. As to the method: Agarose diffusion assays were carried out as described previously using the Darlington strain of C. albicans (Pfizer Ltd., Sandwich, UK) and the control C. albicans database strain SC5314, which is not resistant to azoles. The Cdr1p-specific inhibitor RC21v3 and the CaMdr1p-specific inhibitor MCC1189 (MicroCombiChem, Wiesbaden, Germany), included in the assay medium at 6 µM, were used to investigate the contribution of efflux pumps to azole resistance in the Darlington strain [49, 50, 51].

Setting [7] is: wild-type (AD3Δ) ScLDM6×His, 2 µM enzyme, (± SEM), μM, read-out: [Azole]0.5.
Where [8] appears, read: wild-type (AD3Δ) ScLDM6×His, (± SEM).
[9] abbreviates: wild-type ScLDM6×His, supplement, 'in the 0.5 μM range'.
Setting [10] is: wild-type enzyme, in the presence of 2 µM enzyme, read-out: IC50 from type II binding curves.

T1 sequence (P10614 whole entry, stated change not applied): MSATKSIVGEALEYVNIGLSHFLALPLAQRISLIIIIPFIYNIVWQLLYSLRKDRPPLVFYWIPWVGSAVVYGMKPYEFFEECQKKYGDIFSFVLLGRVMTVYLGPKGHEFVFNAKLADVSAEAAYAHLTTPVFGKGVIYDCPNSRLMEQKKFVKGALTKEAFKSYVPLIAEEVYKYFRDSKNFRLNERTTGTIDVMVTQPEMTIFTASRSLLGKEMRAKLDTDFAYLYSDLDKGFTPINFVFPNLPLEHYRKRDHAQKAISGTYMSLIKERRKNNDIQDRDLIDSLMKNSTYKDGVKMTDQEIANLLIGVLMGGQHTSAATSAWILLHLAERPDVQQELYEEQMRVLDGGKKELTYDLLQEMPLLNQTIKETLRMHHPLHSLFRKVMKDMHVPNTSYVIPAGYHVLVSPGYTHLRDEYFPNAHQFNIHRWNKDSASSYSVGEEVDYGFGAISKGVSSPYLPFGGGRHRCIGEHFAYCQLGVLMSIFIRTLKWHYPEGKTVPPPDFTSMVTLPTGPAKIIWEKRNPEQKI

In the case of `CCC(C)n1ncn(-c2ccc(N3CCN(c4ccc(OCC5COC(Cn6cncn6)(c6ccc(Cl)cc6Cl)O5)cc4)CC3)cc2)c1=O` (stereo not shown) [ITC, itraconazole], in assay [1], the minimal inhibitory concentration (MIC) – broadly, the smallest concentration in the dilution series that meets the test's criterion for growth inhibition – turned out to be 0.108 µM; the “MIC80/Relative Amount of ScLDM6×His” value stood at 0.263 µM; the “fold-resistance based on the relative amount of recombinant enzyme compared with strain AD3Δ” value is 1.8 ×. In assay [1] (ScLDM6×His Y140H I471T (0.41 of wild-type) vs AD3Δ), the “resistance conferred, relative expression taken into account” value was 1.8 fold. In addition, the MIC80 (usually an inhibitory concentration at the 80% level, which refers to growth in some studies and to a panel of isolates in others) in assay [2] is 0.0735 µM. Besides, in assay [3], the dissociation constant (Kd) – broadly, the constant that tells how readily two partners part at equilibrium – is approximately 0.5 µM. The IC50 in assay [4] (setting [7]) was found to be 0.6 µM. Besides, in assay [4] (setting [8]), the ΔAmax is recorded as 0.08 (0.006), the Hill number is recorded as 1.61 (0.22) and the Kd worked out at 0.43 µM. Besides, the Kd in assay [4] (setting [9]) was approximately 0.5 µM. For the same compound, the IC50 in assay [4] (setting [10]) lay in the range of 0.6 to 0.8 µM. Moreover, in assay [5], the MIC80 was 0.143 µM and the “MIC80/Relative Amount of ScLDM6×His” value came out at 0.143 µM. Besides, in assay [6], the “effect of Mdr1 inhibitor MCC1189 on azole susceptibility” value is recorded as “no effect on susceptibility” and the “effect of Cdr1p inhibitor RC21v3 on azole susceptibility” value is on record as “increased susceptibility”.
For the compound `C[C@@H](c1ncncc1F)[C@](O)(Cn1cncn1)c1ccc(F)cc1F` [VCZ, voriconazole], in assay [1], the MIC was 0.25 µM, the “MIC80/Relative Amount of ScLDM6×His” value turned out to be 0.609 µM and the “fold-resistance based on the relative amount of recombinant enzyme compared with strain AD3Δ” value is recorded as 6.5 ×. Besides, the “MIC80 higher than AD3Δ ScErg11 cells” value in assay [1] (strain AD3Δ ScErg11 Y140H I471T, not corrected for expression, p < 0.001) is recorded as “approximately 3 fold”. Also, the “MIC80 higher than cells overexpressing ScLDM6×His Y140H” value in assay [1] (strain AD3Δ ScErg11 Y140H I471T, p < 0.001) was found to be 1.5 fold. In addition, in assay [2], the MIC80 was 0.0375 µM. In assay [3], the Kd is approximately 0.5 µM. The IC50 in assay [4] (setting [7]) amounted to 0.78 µM. In assay [4] (setting [8]), the ΔAmax is 0.10 (0.004), the Hill number is reported as 1.85 (0.23) and the Kd was found to be 0.62 µM. The compound further had a dissociation constant Kd in assay [4] (setting [9]) of approximately 0.5 µM. Further, the IC50 in assay [4] (setting [10]) fell in the range of 0.6 to 0.8 µM. In assay [5], the MIC80 was 0.0933 µM and the “MIC80/Relative Amount of ScLDM6×His” value was 0.0933 µM. For the same compound, the “effect of Mdr1 inhibitor MCC1189 on azole susceptibility” value in assay [6] (SC5314, MCC1189 at 6 µM in the assay medium) was “did not alter the susceptibility”. In addition, the “effect of Cdr1p inhibitor RC21v3 on azole susceptibility” value in assay [6] was “did not alter the susceptibility”. The “agarose diffusion susceptibility” value in assay [6] (SC5314, no efflux pump inhibitor) is recorded as “susceptible”.
